Measured values reported in US8841257B2, “Inhibitors of STAT3 and uses thereof” (Board of Regents, The University of Texas System, priority 2009, dated 2014).
“Also recorded” adds a separate entry of the source.

Assays:
[1] = target: T1, STAT3 (Homo sapiens, UniProt P40763); assay: Inhibition of STAT3 phosphorylation in BT20 breast tumor cells (western blot); assay type: cell-based; design: endogenous in cells; host or cells: BT20 breast tumor cells; settings: BT20 time course
Protocol: Inhibition of STAT3 in BT20 Breast Tumor Cells. General procedure: 35 mm petri dishes were plated with 300,000 BT20 cells in 2 mL RPMI1640 media containing 10% FBS, […], streptomycin, and glutamine. Prodrugs were dissolved in DMSO and were added to the cells with fresh media at varying concentrations. After 2 h the cells were washed with ice cold phosphate buffered saline. Washed cells were treated with lysis buffer (50 mM Hepes, pH 7.4, 150 mM NaCl, 1.5 mM MgCl2, 1 mM EGTA, 100 mM NaF, 10 mM sodium pyrophosphate, 10% glycerol, 1% Triton X-100, 1 mM PMSF, 1 mM Na3VO4, 10 μg/mL leupeptin and 10 μg/mL aprotinin). Cell-free detergent extracts were centrifuged at 15,000 rpm in a microcentriguge for 30 min at 4° C. and the protein concentrations of the supernatants determined. Aliquots containing 12 μg of protein were separated on 8% SDS-PAGE and were transferred to PVDF filters. The filters were blocked with 5% bovine serum albumin and were probed with pStat3^Y705 antibody followed by secondary antibody, whose signal was detected with an enhanced chemiluminescence kit (ECL, Amersham, Chicago, Ill.). Filters were stripped with stripping buffer (62.5 mM Tris, pH 6.8, 2% SDS, and 0.1 M 2-mercaptoethanol) at 50° C. for 30 min. Filters were then probed with total Stat3 antibody and visualized with chemiluminescence as above.
Because DMSO is toxic, other formulations were evaluated for potential use in animal models. The compound of Example 1 was dissolved in EtOH, 20% (w/v) Trappsol (hydroxypropyl β-cyclodextran, pharmaceutical grade), or a liposomal formulation to a concentration of 5 mM. These formulations were given to cells at 0.1, 0.5, and 5 μM concentrations. At two hours, cells were lysed and pSTAT3 levels were determined by Western Blot (FIG. 3). Different formulations have little effect on inhibition of STAT3. The compound of Example 1 was dissolved in DMSO, EtOH, Trappsol, or as a 10 mol % mixture in dimyristoylphosphatidyl choline and applied to BT20 cell in culture. After two hours, cells were lysed and pSTAT3 levels determined by Western blot. To prepare liposomes a solution of 1.0 mg of the compound of Example 1, 7.2 mg of DMPC, 0.41 mg of Tween 20 in 1.0 mL of tert-butanol was lyophilized. A control lipid formulation of 7.2 mg of DMPC and 0.41 mg of Tween 20 in 1.0 mL of tert-butanol was lyophilized. These samples were mixed with 236 μL of H2O and were vortexed and sonicated for 5 min.
The compounds are selective for STAT3 over STAT1 in BT20 breast tumor cells. BT20 cells prepared as above and were treated with 5 μM of the compound of Example 1 for two hours then were treated with 25 ng/mL of interferon γ (IFNγ). […] (FIG. 4, bottom panel).
Time course of inhibition of STAT3 phosphorylation in BT20 cells. BT20 cells were plated as above and treated with the compounds from Examples 1 and 6 and western blots were performed at varying time intervals.

[2] = system: SUM149 inflammatory breast tumor cells; assay: Anchorage-independent growth in soft agar, SUM149; assay type: cell-based; settings: 28 days
Protocol: (§1) Assay for anchorage-independent growth in soft agar Cells (5×10^5) were suspended in 1× DMEM/HEPES, 10% heat-inactivated FBS, 0.13% bicarbonate, and 0.33% BBL agar. The cells were plated on 1% base agar plates (60 mm) containing 1× DMEM/HEPES, 10% heat-inactivated FBS, and 1% BBL agar. Fresh serum-containing medium was fed to the cells on 3-day intervals. The dishes were then incubated at 37° C. with 5% CO2 for 28 days. The colonies that grew in soft agar were photographed and counted. Data are expressed as the number of colonies formed per plate±S.E.M. and three plates were counted per cell line.

[3] = system: SUM149 and MDA-MB-231 cells; assay: In vitro invasion of an artificial basement membrane; assay type: cell-based, human; settings: 5 μM in DMSO; 72 hours
Protocol: Effect of prodrugs on in vitro invasion of an artificial basement membrane by human breast cancer cells. SUM149 and MDA-MB-231 cells were trypsinized, resuspended in serum-supplemented medium, and counted. Cells were then washed 3 times with serum-free medium. Plates (6-well) compatible with transwell inserts with 8 μm pore-size polycarbonate filters (Fisher Scientific) were coated with Matrigel in cold serum-free DMEM/F12 at a final concentration of 0.7 mg/mL and held at room temperature for 40 minutes. Cells (in 500 μL serum-free medium) were added into the transwell inserts and incubated for 72 hours in the absence or presence 5 μM prodrug in DMSO (1% by volume). For a control, 10% FBS was used to evaluate the baseline extent of invasion of the different cell lines. After incubation, noninvading cells on the upper surface of the filter were removed with cotton swabs. Cells that had passed through the pores onto the lower side of the filter were fixed, stained with Hema-3 stain (Fisher Scientific), and quantified. The experiments were performed in triplicate and were repeated twice.

[4] = system: MDA7, MDA-MB-231, SUM149, and SUM190; assay: Anchorage-independent growth in soft agar, four breast tumor models; assay type: cell-based; settings: MDA7, MDA-MB-231, SUM149, SUM190; 28 days
Protocol: as §1

[5] = target: T1, STAT3; assay: EGF-stimulated STAT3 phosphorylation in MDA-MB-468 cells; assay type: cell-based; design: host or cells: MDA-MB-468 breast tumor cells; settings: 1.5 hr prodrug, then EGF 100 ng/mL 30 min
Protocol: (§2) Effect of prodrug on the phosphorylation of STAT3, STAT5 and Akt in response to Epidermal Growth Factor stimulation. MDA-MB-468 cells were prepared as above. Prodrugs were prepared as 10 mM stock solutions in DMSO and aliquots were added to the culture media to give the correct final concentrations. After 1.5 hr EGF was added at 100 ng/mL. After 30 minutes cells were collected and lysed and proteins were separated by PAGE and transferred to three PVDF filters as above. The first filter was blocked with 5% bovine serum albumin and probed for total and phosphoStat3 as above. The second filter was probed for phosphoSer473Akt and total Akt using appropriate antibodies and similar detection procedures to those used for STAT3. The third filter was probed for phosphoTyr699 Stat5 and total STAT5 using appropriate antibodies and similar detection procedures to those used for STAT3.

[6] = system: STAT5; assay: EGF-stimulated STAT5 phosphorylation in MDA-MB-468 cells; assay type: cell-based, human; settings: 1.5 hr prodrug, then EGF 100 ng/mL 30 min
Protocol: as §2

[7] = target: T1, STAT3; assay: Inhibition of Stat3 tyrosine705 phosphorylation in MDA-MB-468 cells; assay type: cell-based; design: host or cells: MDA-MB-468 breast tumor cells; settings: 2 h
Protocol: Inhibition of Stat3 tyrosine705 phosphorylation in MDA-MB-468 cells. MDA-MB-468 breast tumor cells (0.4×10^6) were plated onto 35 mm culture dishes and were allowed to grow overnight. Prodrugs were prepared as 10 mM stock solutions in DMSO and aliquots were added to the culture media to give the correct final concentrations. After 2 h the cells were washed with ice cold phosphate buffered saline. Washed cells were treated with lysis buffer (50 mM Hepes, pH 7.4, 150 mM NaCl, 1.5 mM MgCl2, 1 mM EGTA, 100 mM NaF, 10 mM sodium pyrophosphate, 10% glycerol, 1% Triton X-100, 1 mM PMSF, 1 mM Na3VO4, 10 μg/mL leupeptin and 10 μg/mL aprotinin). Cell-free detergent extracts were centrifuged at 15,000 rpm in a microcentriguge for 30 min at 4° C. and the protein concentrations of the supernatants determined. Aliquots containing 12 μg of protein were separated on 8% SDS-PAGE and were transferred to PVDF filters. The filters were blocked with 5% bovine serum albumin and were probed with pStat3^Y705 antibody followed by secondary antibody, whose signal was detected with an enhanced chemiluminescence kit (ECL, Amersham, Chicago, Ill.). Filters were stripped with stripping buffer (62.5 mM Tris, pH 6.8, 2% SDS, and 0.1 M 2-mercaptoethanol) at 50° C. for 30 min. Filters were then probed with total Stat3 antibody and visualized with chemiluminescence as above.

[8] = target: T2, STAT1 (Homo sapiens, UniProt P42224); assay: IFNγ-stimulated STAT1 phosphorylation in MDA-MB-468 cells; assay type: cell-based; design: host or cells: MDA-MB-468 breast tumor cells
T2 sequence (P42224 1-750): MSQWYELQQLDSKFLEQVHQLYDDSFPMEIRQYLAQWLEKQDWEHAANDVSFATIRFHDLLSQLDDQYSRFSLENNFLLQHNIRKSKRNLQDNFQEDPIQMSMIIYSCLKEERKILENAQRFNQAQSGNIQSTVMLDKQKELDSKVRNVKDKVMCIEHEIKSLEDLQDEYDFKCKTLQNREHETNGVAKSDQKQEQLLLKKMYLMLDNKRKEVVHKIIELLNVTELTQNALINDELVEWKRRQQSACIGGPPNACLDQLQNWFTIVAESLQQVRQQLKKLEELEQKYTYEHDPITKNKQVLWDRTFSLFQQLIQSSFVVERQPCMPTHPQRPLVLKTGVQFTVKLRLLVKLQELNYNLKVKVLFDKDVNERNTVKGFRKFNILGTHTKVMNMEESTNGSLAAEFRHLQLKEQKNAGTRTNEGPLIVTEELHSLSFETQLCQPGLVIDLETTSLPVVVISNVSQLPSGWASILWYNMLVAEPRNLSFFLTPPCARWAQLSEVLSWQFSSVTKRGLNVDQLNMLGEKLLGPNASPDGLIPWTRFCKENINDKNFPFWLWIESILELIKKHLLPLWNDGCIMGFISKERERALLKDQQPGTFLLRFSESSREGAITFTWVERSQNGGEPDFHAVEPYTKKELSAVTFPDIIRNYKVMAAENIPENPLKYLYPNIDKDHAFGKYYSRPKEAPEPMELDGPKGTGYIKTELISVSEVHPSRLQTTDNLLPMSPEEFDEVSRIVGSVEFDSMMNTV
Protocol: Effect of Prodrug on the phosphorylation of STAT1 in MDA-MB-468 breast tumor cells. MDA-MB-468 cells were prepared as above. Prodrugs were prepared as 10 mM stock solutions in DMSO and aliquots were added to the culture media to give the correct final concentrations. After 1.5 hr interferonγ was added at 25 ng/mL. After 30 minutes cells were collected and lysed and proteins were separated by PAGE and transferred to PVDF filters as above. Filters were probed for phosphoTyr701 Stat 1 and total Stat1 using appropriate antibodies and similar detection procedures to those used for Stat3.

[9] = system: Focal Adhesion Kinase (FAK); assay: Phosphorylation of Focal Adhesion Kinase Tyr861 in MDA-MB-468 cells; assay type: cell-based, human; settings: 2 hr treatment
Excerpt: Effect of Prodrug on the phosphorylation of Focal Adhesion Kinase (FAK) in MDA-MB-468 breast tumor cells. MDA-MB-468 cells express constitutive phosphorylation of Tyr861 of FAK (Laird, A. et al., Src Family Kinase Activity is Required For Signal Tranducer and Activator of Transcription 3 and Focal Adhesion Kinase Phosphorylation and Vascular Endothelial Growth Factor Signaling In Vivo and For Anchorage-Dependent and Independent Growth Of Human Tumor Cells, Mol Cancer Ther, 2, 461-9(2003). a unique substrate of Src upon recruitment via its SH2 domain (Calalb, M. B., et al, S. K. Focal adhesion kinase tyrosine-861 is a major site of phosphorylation by Src. Biochem Biophys Res Commun 1996, 228, 662-8 (1996.) To test for cross reactivity to the Src SH2 domain, MDA-MB-468 cell extracts were probed for phosphorylation of Tyr861 of FAK.

[10] = system: Akt; assay: EGF-stimulated Akt Ser473 phosphorylation in MDA-MB-468 cells; assay type: cell-based, human; settings: 1.5 hr prodrug, then EGF 100 ng/mL 30 min
Protocol: as §2

T1 sequence (P40763 whole entry): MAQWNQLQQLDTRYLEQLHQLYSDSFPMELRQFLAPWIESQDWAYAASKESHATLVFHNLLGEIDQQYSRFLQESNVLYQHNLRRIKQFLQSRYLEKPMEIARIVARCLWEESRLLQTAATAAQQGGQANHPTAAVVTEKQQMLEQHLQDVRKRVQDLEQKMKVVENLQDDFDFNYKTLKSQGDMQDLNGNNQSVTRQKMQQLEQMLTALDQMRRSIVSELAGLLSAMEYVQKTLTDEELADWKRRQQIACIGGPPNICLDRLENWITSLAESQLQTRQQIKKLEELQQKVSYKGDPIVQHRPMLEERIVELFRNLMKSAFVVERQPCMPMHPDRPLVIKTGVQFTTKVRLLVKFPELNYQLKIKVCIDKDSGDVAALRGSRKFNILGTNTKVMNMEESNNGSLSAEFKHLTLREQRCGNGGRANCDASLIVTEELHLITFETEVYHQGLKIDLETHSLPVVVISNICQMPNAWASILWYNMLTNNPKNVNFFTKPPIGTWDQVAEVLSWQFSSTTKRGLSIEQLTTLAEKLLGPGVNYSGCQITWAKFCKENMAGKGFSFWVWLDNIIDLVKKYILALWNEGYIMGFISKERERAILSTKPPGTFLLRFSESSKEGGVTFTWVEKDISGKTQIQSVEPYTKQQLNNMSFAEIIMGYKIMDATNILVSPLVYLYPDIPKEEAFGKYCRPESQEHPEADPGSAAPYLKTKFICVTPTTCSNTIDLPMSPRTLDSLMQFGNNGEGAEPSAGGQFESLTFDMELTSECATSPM

Structure (SMILES) | effectiveness of phosphate (X=O) relative to difluoromethyl phosphonate Example 1 (X=CF2) [1] | colony formation in soft agar [2] | invasion through the artificial basement membrane [3] | colony formation in soft agar, four breast tumor models [4] | EGF-induced increase in Stat3 phosphorylation [5] | Stat5 phosphorylation after EGF [6] | concentration as low as which partial inhibition of STAT3 phosphorylation was seen [7] | concentration at which complete inhibition of STAT3 phosphorylation occurred [7] | inhibition of Tyr705 phosphorylation of Stat3 (potency in words) ([7]; prodrug in DMSO) | inhibition of Stat1 phosphorylation compared with Stat3 phosphorylation ([8]; 1.5 hr prodrug, then interferonγ 25 ng/mL 30 min) | fold less potent at inhibiting STAT1 than STAT3 ([8]; MDA-MB-468 cells) | phosphorylation of FAK Tyr861 [9] | Akt Ser473 phosphorylation after EGF [10]
C/C(=C\C(=O)N[C@H]1CCc2cccc3c2N(C1=O)[C@H](C(=O)N[C@H](C)CCC(N)=O)C3)c1ccc(C(F)(F)P(=O)(Oc2ccccc2)Oc2ccccc2)cc1 [Example 8, (E)-3-[4-[(Diphenoxyphosphinyl)difluoromethyl]phenyl]-but-2-enoyl-Haic-(R)-4-aminopentamide] | as effective as | inhibition of colony formation | inhibited invasion | inhibition |  |  |  |  |  |  |  |  | 
CCCC[C@H](NC(=O)/C=C(\C)c1ccc(C(F)(F)P(=O)(OCOC(=O)C(C)(C)C)OCOC(=O)C(C)(C)C)cc1)C(=O)N1C[C@H]2CC2[C@H]1C(=O)N[C@H](C)CCC(N)=O (stereo partly drawn) [Example 18, (2E)-3-[4-[[bis[(2,2-dimethyl-1-oxopropoxy)methoxy]phosphinyl]difluoromethyl]phenyl]-but-2-enoyl-norleucinyl-(2S,3R,4S)-methanoprolinyl-(R)-4-aminopentamide] |  |  |  |  | effective at inhibiting | no effect | 10 nM | 500 nM | very potent inhibitors; also recorded: inhibit phosphorylation of STAT3 | less effective | about 10 fold | no reduction; also recorded: do not inhibit | no effect
